{"source": "patent US20080199464A1", "about": "“Combination Therapy with Angiogenesis Inhibitors” (Genentech, Inc., priority 2007, published 2008)", "key": {"[1]": {"tested_on": "LS174T human colon carcinoma xenografts", "assay": "Growth inhibition of established LS174T human colon carcinoma xenografts", "format": "in vivo, athymic nude mice", "settings": "Day 18 of separate 25-day study; high sunitinib dose 50 mg/kg daily, alone or with B20-4.1", "description": "(§1) Volume was calculated using the formula:\n(§2) Tumor Volume(mm^3)=(W2×l)/2\n(§3) Tumors were measured twice weekly using calipers. […] Treatment outcome was based on tumor growth inhibition (TGI).\n(§4) Animals were monitored for regression responses."}, "[2]": {"tested_on": "H1299 human non-small cell lung carcinoma (NSCLC) xenografts", "assay": "Growth inhibition of established H1299 human NSCLC xenografts", "format": "in vivo, athymic nude mice", "settings": "Day 19, longer term study, alone or with B20-4.1", "description": "as §1, §2, §3, §4"}, "[3]": {"tested_on": "786-O renal cell carcinoma (RCC) xenografts", "assay": "Growth inhibition of established 786-O renal cell carcinoma xenografts", "format": "in vivo, athymic nude mice", "settings": "high sunitinib dose 50 mg/kg daily, alone or with B20-4.1", "description": "as §1, §2, §3, §4"}, "[4]": {"tested_on": "Caki-2 human renal cell carcinoma xenografts", "assay": "Growth inhibition of established Caki-2 renal cell carcinoma xenografts", "format": "in vivo, SCID mice", "description": "as §1, §2, §3, §4"}}, "data": [{"compound": "CCN(CC)CCNC(=O)c1c(C)[nH]c(/C=C2\\C(=O)Nc3ccc(F)cc32)c1C", "note": "[sunitinib, N-[2-(diethylamino)ethyl]-5-[(Z)-(5-fluoro-1,2-dihydro-2-oxo-3H-indol-3-ylidine)methyl]-2,4-dimethyl-1H-pyrrole-3-carboxamde]", "values": [{"measurement": "TGI (tumor growth inhibition)", "setting": "[1]", "result": 43, "unit": "%"}, {"measurement": "TGI (tumor growth inhibition)", "setting": "[2]; sunitinib 25 mg/kg daily", "result": 32, "unit": "%"}, {"measurement": "TGI (tumor growth inhibition)", "setting": "[2]; sunitinib 50 mg/kg daily", "result": 62, "unit": "%"}, {"measurement": "TGI (tumor growth inhibition)", "setting": "[3]", "result": 80, "unit": "%"}, {"measurement": "TGI (tumor growth inhibition)", "setting": "[4]; Day 29, high dose (50 mg/kg) sunitinib, alone or with B20-4.1", "result": 62, "unit": "%"}, {"measurement": "Day 29 mean tumor volumes (MTVs)", "setting": "[4]; low dose (25 mg/kg) sunitinib monotherapy", "result": 352, "unit": "mm^3"}]}]}
